{
  "source": "patent US20150025118A1",
  "about": "“ACTIVE COMPOUND COMPOSITIONS FOR VECTOR CONTROL OF INSECTICIDE-RESISTANT PESTS” (priority 2012, published 2015)",
  "key": {"[1]": {"tested_on": "Anopheles gambiae (target-site-resistant and metabolic-resistant strain: RSPH)", "assay": "Target-site-resistant and metabolic-resistant Anopheles test: treated glazed tile, knock-down", "format": "in vivo", "description": "(§1) The exposition time is 30 minutes.\n(§2) 0.25 hours, 0.5 hours, 1 hour, 2 hour, 3 hour, 4 hour and 24 hours after contact to the treated surface, the knock-down proportion of the test animals in % is determined. Here, 100% means that all mosquitoes have been killed; 0% means that none of the mosquitoes has been killed."}, "[2]": {"tested_on": "Anopheles funestus metabolic-resistant strain FUMOZ-R", "assay": "Metabolic-resistant Anopheles test: treated glazed tile, knock-down", "format": "in vivo", "description": "as §1, §2"}, "[3]": {"tested_on": "Aedes aegypti", "assay": "Aedes test: contact on treated glazed tile, knock-down", "format": "in vivo", "description": "To produce a suitable preparation of active compound combination the active compounds bendiocarb and clothianidin were dissolved in acetone (for the control group only one active compound was dissolved in acetone). The active compound combination preparation (and the active compound preparations) were pipetted onto a glazed tile and, after drying, adult mosquitoes of the species Aedes aegypti are placed onto the treated tile. The exposition time is 30 minutes.\nas §2"}, "[4]": {"tested_on": "mosquitoes", "conditions": "alone, on wood; stated as known; cited from earlier work"}, "[5]": {"conditions": "Dinotefuran 0.8 mg/m^2 alone, 0.25 h after contact"}, "[6]": {"conditions": "Dinotefuran 0.8 mg/m^2 alone, 0.5 h after contact"}, "[7]": {"conditions": "Dinotefuran 0.8 mg/m^2 alone, 1 h after contact"}, "[8]": {"conditions": "Dinotefuran 0.8 mg/m^2 alone, 2 h after contact"}, "[9]": {"conditions": "Dinotefuran 0.8 mg/m^2 alone, 3 h after contact"}, "[10]": {"conditions": "Dinotefuran 0.8 mg/m^2 alone, 4 h after contact"}, "[11]": {"conditions": "Dinotefuran 0.8 mg/m^2 alone, 24 h after contact"}, "[12]": {"conditions": "Dinotefuran 4 mg/m^2 alone, 0.25 h after contact"}, "[13]": {"conditions": "Dinotefuran 4 mg/m^2 alone, 0.5 h after contact"}, "[14]": {"conditions": "Dinotefuran 4 mg/m^2 alone, 1 h after contact"}, "[15]": {"conditions": "Dinotefuran 4 mg/m^2 alone, 2 h after contact"}, "[16]": {"conditions": "Dinotefuran 4 mg/m^2 alone, 3 h after contact"}, "[17]": {"conditions": "Dinotefuran 4 mg/m^2 alone, 4 h after contact"}, "[18]": {"conditions": "Dinotefuran 4 mg/m^2 alone, 24 h after contact"}, "[19]": {"conditions": "Clothianidin 5 mg/m^2 alone, 0.25 h after contact"}, "[20]": {"conditions": "Clothianidin 5 mg/m^2 alone, 0.5 h after contact"}, "[21]": {"conditions": "Clothianidin 5 mg/m^2 alone, 1 h after contact"}, "[22]": {"conditions": "Clothianidin 5 mg/m^2 alone, 2 h after contact"}, "[23]": {"conditions": "Clothianidin 5 mg/m^2 alone, 3 h after contact"}, "[24]": {"conditions": "Clothianidin 5 mg/m^2 alone, 4 h after contact"}, "[25]": {"conditions": "Clothianidin 5 mg/m^2 alone, 24 h after contact"}, "[26]": {"conditions": "Clothianidin 20 mg/m^2 alone, 0.25 h after contact"}, "[27]": {"conditions": "Clothianidin 20 mg/m^2 alone, 0.5 h after contact"}, "[28]": {"conditions": "Clothianidin 20 mg/m^2 alone, 1 h after contact"}, "[29]": {"conditions": "Clothianidin 20 mg/m^2 alone, 2 h after contact"}, "[30]": {"conditions": "Clothianidin 20 mg/m^2 alone, 3 h after contact"}, "[31]": {"conditions": "Clothianidin 20 mg/m^2 alone, 4 h after contact"}, "[32]": {"conditions": "Clothianidin 20 mg/m^2 alone, 24 h after contact"}},
  "data": [
    {"smiles": "CN/C(=N/CC1CCOC1)N[N+](=O)[O-]", "note": "(stereo not shown) [Dinotefuran, dinotefuran]", "values": [
      {"measurement": "Effect % (knock-down)", "setting": "[1]; [5]", "value": 10, "unit": "%"},
      {"measurement": "Effect % (knock-down)", "setting": "[1]; [6]", "value": 5, "unit": "%"},
      {"measurement": "Effect % (knock-down)", "setting": "[1]; [7]", "value": 5, "unit": "%"},
      {"measurement": "Effect % (knock-down)", "setting": "[1]; [8]", "value": 10, "unit": "%"},
      {"measurement": "Effect % (knock-down)", "setting": "[1]; [9]", "value": 20, "unit": "%"},
      {"measurement": "Effect % (knock-down)", "setting": "[1]; [10]", "value": 30, "unit": "%"},
      {"measurement": "Effect % (knock-down)", "setting": "[1]; [11]", "value": 35, "unit": "%"},
      {"measurement": "Effect % (knock-down)", "setting": "[1]; [12]", "value": 15, "unit": "%"},
      {"measurement": "Effect % (knock-down)", "setting": "[1]; [13]", "value": 5, "unit": "%"},
      {"measurement": "Effect % (knock-down)", "setting": "[1]; [14]", "value": 15, "unit": "%"},
      {"measurement": "Effect % (knock-down)", "setting": "[1]; [15]", "value": 40, "unit": "%"},
      {"measurement": "Effect % (knock-down)", "setting": "[1]; [16]", "value": 35, "unit": "%"},
      {"measurement": "Effect % (knock-down)", "setting": "[1]; [17]", "value": 65, "unit": "%"},
      {"measurement": "Effect % (knock-down)", "setting": "[1]; [18]", "value": 65, "unit": "%"},
      {"measurement": "Effect % (knock-down)", "setting": "[2]; [5]", "value": 0, "unit": "%"},
      {"measurement": "Effect % (knock-down)", "setting": "[2]; [6]", "value": 0, "unit": "%"},
      {"measurement": "Effect % (knock-down)", "setting": "[2]; [7]", "value": 5, "unit": "%"},
      {"measurement": "Effect % (knock-down)", "setting": "[2]; [8]", "value": 0, "unit": "%"},
      {"measurement": "Effect % (knock-down)", "setting": "[2]; [9]", "value": 10, "unit": "%"},
      {"measurement": "Effect % (knock-down)", "setting": "[2]; [10]", "value": 15, "unit": "%"},
      {"measurement": "Effect % (knock-down)", "setting": "[2]; [11]", "value": 35, "unit": "%"},
      {"measurement": "Effect % (knock-down)", "setting": "[2]; [12]", "value": 15, "unit": "%"},
      {"measurement": "Effect % (knock-down)", "setting": "[2]; [13]", "value": 10, "unit": "%"},
      {"measurement": "Effect % (knock-down)", "setting": "[2]; [14]", "value": 10, "unit": "%"},
      {"measurement": "Effect % (knock-down)", "setting": "[2]; [15]", "value": 15, "unit": "%"},
      {"measurement": "Effect % (knock-down)", "setting": "[2]; [16]", "value": 30, "unit": "%"},
      {"measurement": "Effect % (knock-down)", "setting": "[2]; [17]", "value": 40, "unit": "%"},
      {"measurement": "Effect % (knock-down)", "setting": "[2]; [18]", "value": 55, "unit": "%"}
    ]},
    {"smiles": "CN/C(=N\\[N+](=O)[O-])NCc1cnc(Cl)s1", "note": "[Clothianidin, clothianidin]", "values": [
      {"measurement": "Effect % (knock-down)", "setting": "[3]; [19]", "value": 5, "unit": "%"},
      {"measurement": "Effect % (knock-down)", "setting": "[3]; [20]", "value": 5, "unit": "%"},
      {"measurement": "Effect % (knock-down)", "setting": "[3]; [21]", "value": 5, "unit": "%"},
      {"measurement": "Effect % (knock-down)", "setting": "[3]; [22]", "value": 5, "unit": "%"},
      {"measurement": "Effect % (knock-down)", "setting": "[3]; [23]", "value": 5, "unit": "%"},
      {"measurement": "Effect % (knock-down)", "setting": "[3]; [24]", "value": 10, "unit": "%"},
      {"measurement": "Effect % (knock-down)", "setting": "[3]; [25]", "value": 15, "unit": "%"},
      {"measurement": "Effect % (knock-down)", "setting": "[3]; [26]", "value": 0, "unit": "%"},
      {"measurement": "Effect % (knock-down)", "setting": "[3]; [27]", "value": 15, "unit": "%"},
      {"measurement": "Effect % (knock-down)", "setting": "[3]; [28]", "value": 20, "unit": "%"},
      {"measurement": "Effect % (knock-down)", "setting": "[3]; [29]", "value": 15, "unit": "%"},
      {"measurement": "Effect % (knock-down)", "setting": "[3]; [30]", "value": 10, "unit": "%"},
      {"measurement": "Effect % (knock-down)", "setting": "[3]; [31]", "value": 10, "unit": "%"},
      {"measurement": "Effect % (knock-down)", "setting": "[3]; [32]", "value": 30, "unit": "%"},
      {"measurement": "Effect % (knock-down)", "setting": "[1]; [19]", "value": 15, "unit": "%"},
      {"measurement": "Effect % (knock-down)", "setting": "[1]; [20]", "value": 25, "unit": "%"},
      {"measurement": "Effect % (knock-down)", "setting": "[1]; [21]", "value": 35, "unit": "%"},
      {"measurement": "Effect % (knock-down)", "setting": "[1]; [22]", "value": 35, "unit": "%"},
      {"measurement": "Effect % (knock-down)", "setting": "[1]; [23]", "value": 45, "unit": "%"},
      {"measurement": "Effect % (knock-down)", "setting": "[1]; [24]", "value": 50, "unit": "%"},
      {"measurement": "Effect % (knock-down)", "setting": "[1]; [25]", "value": 65, "unit": "%"},
      {"measurement": "Effect % (knock-down)", "setting": "[1]; [26]", "value": 30, "unit": "%"},
      {"measurement": "Effect % (knock-down)", "setting": "[1]; [27]", "value": 35, "unit": "%"},
      {"measurement": "Effect % (knock-down)", "setting": "[1]; [28]", "value": 40, "unit": "%"},
      {"measurement": "Effect % (knock-down)", "setting": "[1]; [29]", "value": 45, "unit": "%"},
      {"measurement": "Effect % (knock-down)", "setting": "[1]; [30]", "value": 50, "unit": "%"},
      {"measurement": "Effect % (knock-down)", "setting": "[1]; [31]", "value": 55, "unit": "%"},
      {"measurement": "Effect % (knock-down)", "setting": "[1]; [32]", "value": 65, "unit": "%"},
      {"measurement": "Effect % (knock-down)", "setting": "[1]; Clothianidin 50 mg/m^2 alone, 0.25 h after contact", "value": 10, "unit": "%"},
      {"measurement": "Effect % (knock-down)", "setting": "[1]; Clothianidin 50 mg/m^2 alone, 0.5 h after contact", "value": 35, "unit": "%"},
      {"measurement": "Effect % (knock-down)", "setting": "[1]; Clothianidin 50 mg/m^2 alone, 1 h after contact", "value": 65, "unit": "%"},
      {"measurement": "Effect % (knock-down)", "setting": "[1]; Clothianidin 50 mg/m^2 alone, 2 h after contact", "value": 65, "unit": "%"},
      {"measurement": "Effect % (knock-down)", "setting": "[1]; Clothianidin 50 mg/m^2 alone, 3 h after contact", "value": 60, "unit": "%"},
      {"measurement": "Effect % (knock-down)", "setting": "[1]; Clothianidin 50 mg/m^2 alone, 4 h after contact", "value": 65, "unit": "%"},
      {"measurement": "Effect % (knock-down)", "setting": "[1]; Clothianidin 50 mg/m^2 alone, 24 h after contact", "value": 95, "unit": "%"},
      {"measurement": "efficiency on wood", "setting": "[4]", "value": "not efficient"}
    ]}
  ]
}
